Results published in ChEMBL document CHEMBL4507302, “Data for DCP probe TP-020” (2021).

How the values were obtained:
[1] = target: cGMP-dependent protein kinase 2 (Homo sapiens) (UniProt Q13237); conditions: Compound concentration 1000.0 nM
[2] = target: MAP/microtubule affinity-regulating kinase 3 (Homo sapiens) (UniProt P27448); conditions: Compound concentration 1000.0 nM
[3] = target: Mitogen-activated protein kinase kinase kinase 12 (Homo sapiens) (UniProt Q12852); conditions: Compound concentration 1000.0 nM
[4] = target: Epithelial discoidin domain-containing receptor 1 (Homo sapiens) (UniProt Q08345); conditions: Compound concentration 1000.0 nM
[5] = target: Mu-type opioid receptor (Homo sapiens) (UniProt P35372); conditions: Compound concentration 10.0 uM
[6] = target: Dual specificity mitogen-activated protein kinase kinase 7 (Homo sapiens) (UniProt O14733); conditions: Compound concentration 1000.0 nM
[7] = target: Phosphatidylinositol 4,5-bisphosphate 3-kinase catalytic subunit delta isoform (Homo sapiens) (UniProt O00329); conditions: Compound concentration 1000.0 nM
[8] = target: Tyrosine-protein kinase JAK1 (Homo sapiens) (UniProt P23458); conditions: Compound concentration 1000.0 nM
[9] = target: Dual specificity tyrosine-phosphorylation-regulated kinase 2 (Homo sapiens) (UniProt Q92630); conditions: Compound concentration 1000.0 nM
[10] = test system: Mast/stem cell growth factor receptor Kit (Homo sapiens), P10721 [V559D,T670I]; conditions: Compound concentration 1000.0 nM
[11] = target: Ephrin type-A receptor 5 (Homo sapiens) (UniProt P54756); conditions: Compound concentration 1000.0 nM
[12] = target: Mitogen-activated protein kinase 13 (Homo sapiens) (UniProt O15264); conditions: Compound concentration 1000.0 nM
[13] = test system: Mast/stem cell growth factor receptor Kit (Homo sapiens), P10721 [V559D]; conditions: Compound concentration 1000.0 nM
[14] = test system: Phosphatidylinositol 4,5-bisphosphate 3-kinase catalytic subunit alpha isoform (Homo sapiens), P42336 [H1047L]; conditions: Compound concentration 1000.0 nM
[15] = target: Tyrosine-protein kinase ZAP-70 (Homo sapiens) (UniProt P43403); conditions: Compound concentration 1000.0 nM
[16] = target: Serine/threonine-protein kinase SIK2 (Homo sapiens) (UniProt Q9H0K1); conditions: Compound concentration 1000.0 nM
[17] = target: Tyrosine-protein kinase receptor UFO (Homo sapiens) (UniProt P30530); conditions: Compound concentration 1000.0 nM
[18] = target: Mast/stem cell growth factor receptor Kit (Homo sapiens) (UniProt P10721); conditions: Compound concentration 1000.0 nM
[19] = target: Homeodomain-interacting protein kinase 2 (Homo sapiens) (UniProt Q9H2X6); conditions: Compound concentration 1000.0 nM
[20] = target: D(2) dopamine receptor (Homo sapiens) (UniProt P14416); conditions: Compound concentration 10.0 uM
[21] = target: Cyclin-dependent kinase 4 (Homo sapiens) (UniProt P11802); conditions: Compound concentration 1000.0 nM
[22] = target: Leucine-rich repeat serine/threonine-protein kinase 2 (Homo sapiens) (UniProt Q5S007); conditions: Compound concentration 1000.0 nM
[23] = target: Mitogen-activated protein kinase kinase kinase 20 (Homo sapiens) (UniProt Q9NYL2); conditions: Compound concentration 1000.0 nM
[24] = target: Inhibitor of nuclear factor kappa-B kinase subunit epsilon (Homo sapiens) (UniProt Q14164); conditions: Compound concentration 1000.0 nM
[25] = target: Angiopoietin-1 receptor (Homo sapiens) (UniProt Q02763); conditions: Compound concentration 1000.0 nM
[26] = target: Muscarinic acetylcholine receptor M4 (Homo sapiens) (UniProt P08173); conditions: Compound concentration 10.0 uM
[27] = target: Phosphatidylinositol 3-kinase catalytic subunit type 3 (Homo sapiens) (UniProt Q8NEB9); conditions: Compound concentration 1000.0 nM
[28] = target: Serine/threonine-protein kinase MARK2 (Homo sapiens) (UniProt Q7KZI7); conditions: Compound concentration 1000.0 nM
[29] = target: Serine/threonine-protein kinase PAK 3 (Homo sapiens) (UniProt O75914); conditions: Compound concentration 1000.0 nM
[30] = target: Cyclin-dependent kinase 5 (Homo sapiens) (UniProt Q00535); conditions: Compound concentration 1000.0 nM
[31] = target: Tyrosine-protein kinase SYK (Homo sapiens) (UniProt P43405); conditions: Compound concentration 1000.0 nM
[32] = target: Hormonally up-regulated neu tumor-associated kinase (Homo sapiens) (UniProt P57058); conditions: Compound concentration 1000.0 nM
[33] = target: Ephrin type-B receptor 4 (Homo sapiens) (UniProt P54760); conditions: Compound concentration 1000.0 nM
[34] = target: 5-hydroxytryptamine receptor 1D (Homo sapiens, UniProt P28221); conditions: Compound concentration 10.0 uM
[35] = target: Macrophage colony-stimulating factor 1 receptor (Homo sapiens) (UniProt P07333); conditions: Compound concentration 1000.0 nM
[36] = target: Cyclin-dependent kinase 7 (Homo sapiens) (UniProt P50613); conditions: Compound concentration 1000.0 nM
[37] = target: Transient receptor potential cation channel subfamily M member 6 (Homo sapiens) (UniProt Q9BX84); conditions: Compound concentration 1000.0 nM
[38] = test system: Serine/threonine-protein kinase B-raf (Homo sapiens), P15056 [V600E]; conditions: Compound concentration 1000.0 nM
[39] = target: Vascular endothelial growth factor receptor 3 (Homo sapiens) (UniProt P35916); conditions: Compound concentration 1000.0 nM
[40] = target: STE20-like serine/threonine-protein kinase (Homo sapiens) (UniProt Q9H2G2); conditions: Compound concentration 1000.0 nM
[41] = target: Mitogen-activated protein kinase 15 (Homo sapiens) (UniProt Q8TD08); conditions: Compound concentration 1000.0 nM
[42] = target: Alpha-2B adrenergic receptor (Homo sapiens) (UniProt P18089); conditions: Compound concentration 10.0 uM
[43] = target: Receptor tyrosine-protein kinase erbB-2 (Homo sapiens) (UniProt P04626); conditions: Compound concentration 1000.0 nM
[44] = target: Casein kinase II subunit alpha' (Homo sapiens) (UniProt P19784); conditions: Compound concentration 1000.0 nM
[45] = target: RAC-gamma serine/threonine-protein kinase (Homo sapiens) (UniProt Q9Y243); conditions: Compound concentration 1000.0 nM

Sequence of Mast/stem cell growth factor receptor Kit (Homo sapiens), P10721 [V559D,T670I] (P10721 whole entry V559D/T670I): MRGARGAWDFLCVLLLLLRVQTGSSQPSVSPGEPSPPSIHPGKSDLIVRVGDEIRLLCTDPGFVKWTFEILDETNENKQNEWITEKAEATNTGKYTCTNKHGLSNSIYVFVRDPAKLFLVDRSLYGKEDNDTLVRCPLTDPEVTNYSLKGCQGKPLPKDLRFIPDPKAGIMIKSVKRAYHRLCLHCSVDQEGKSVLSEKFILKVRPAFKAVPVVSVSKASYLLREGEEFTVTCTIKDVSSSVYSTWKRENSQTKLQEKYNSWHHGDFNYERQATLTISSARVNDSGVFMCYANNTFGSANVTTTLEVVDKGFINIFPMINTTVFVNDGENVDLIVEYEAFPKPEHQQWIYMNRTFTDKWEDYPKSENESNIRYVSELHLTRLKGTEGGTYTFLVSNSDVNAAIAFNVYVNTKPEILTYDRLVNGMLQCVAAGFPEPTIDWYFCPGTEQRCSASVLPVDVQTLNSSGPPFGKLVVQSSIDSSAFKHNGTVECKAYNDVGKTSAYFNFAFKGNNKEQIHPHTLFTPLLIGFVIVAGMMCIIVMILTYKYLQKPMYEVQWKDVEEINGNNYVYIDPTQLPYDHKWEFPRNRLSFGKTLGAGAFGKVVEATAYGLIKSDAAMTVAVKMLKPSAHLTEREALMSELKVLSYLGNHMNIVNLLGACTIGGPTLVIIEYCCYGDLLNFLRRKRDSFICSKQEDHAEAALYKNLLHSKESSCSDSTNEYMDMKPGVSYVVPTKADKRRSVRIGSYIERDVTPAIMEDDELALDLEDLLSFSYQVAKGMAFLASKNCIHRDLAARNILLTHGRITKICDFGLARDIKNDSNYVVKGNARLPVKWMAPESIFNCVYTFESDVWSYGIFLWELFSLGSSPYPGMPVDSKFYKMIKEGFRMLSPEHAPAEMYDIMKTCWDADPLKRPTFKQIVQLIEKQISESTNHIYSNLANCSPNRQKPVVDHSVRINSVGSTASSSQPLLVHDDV
Sequence of Serine/threonine-protein kinase MARK2 (Homo sapiens) (Q7KZI7 whole entry): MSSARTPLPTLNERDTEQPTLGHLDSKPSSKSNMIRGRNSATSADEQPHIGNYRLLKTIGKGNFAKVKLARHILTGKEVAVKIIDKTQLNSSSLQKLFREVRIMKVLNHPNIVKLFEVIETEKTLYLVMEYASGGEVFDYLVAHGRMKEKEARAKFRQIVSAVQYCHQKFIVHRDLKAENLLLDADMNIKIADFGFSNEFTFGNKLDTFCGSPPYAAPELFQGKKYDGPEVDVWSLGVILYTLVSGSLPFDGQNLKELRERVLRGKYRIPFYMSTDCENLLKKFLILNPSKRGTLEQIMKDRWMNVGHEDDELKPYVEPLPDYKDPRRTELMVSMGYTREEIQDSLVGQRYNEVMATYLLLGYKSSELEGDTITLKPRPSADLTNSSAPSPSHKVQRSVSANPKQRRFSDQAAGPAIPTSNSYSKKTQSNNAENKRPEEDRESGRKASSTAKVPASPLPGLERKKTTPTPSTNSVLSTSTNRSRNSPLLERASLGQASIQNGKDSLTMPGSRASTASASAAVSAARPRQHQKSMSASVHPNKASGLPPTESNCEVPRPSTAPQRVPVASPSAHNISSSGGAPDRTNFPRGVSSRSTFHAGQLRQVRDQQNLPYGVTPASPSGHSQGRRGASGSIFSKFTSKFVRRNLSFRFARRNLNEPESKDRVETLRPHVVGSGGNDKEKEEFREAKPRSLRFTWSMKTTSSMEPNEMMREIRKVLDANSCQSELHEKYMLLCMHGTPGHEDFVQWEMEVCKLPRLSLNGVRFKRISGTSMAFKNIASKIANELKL
Sequence of Epithelial discoidin domain-containing receptor 1 (Homo sapiens) (Q08345 whole entry, the tested form may be a part): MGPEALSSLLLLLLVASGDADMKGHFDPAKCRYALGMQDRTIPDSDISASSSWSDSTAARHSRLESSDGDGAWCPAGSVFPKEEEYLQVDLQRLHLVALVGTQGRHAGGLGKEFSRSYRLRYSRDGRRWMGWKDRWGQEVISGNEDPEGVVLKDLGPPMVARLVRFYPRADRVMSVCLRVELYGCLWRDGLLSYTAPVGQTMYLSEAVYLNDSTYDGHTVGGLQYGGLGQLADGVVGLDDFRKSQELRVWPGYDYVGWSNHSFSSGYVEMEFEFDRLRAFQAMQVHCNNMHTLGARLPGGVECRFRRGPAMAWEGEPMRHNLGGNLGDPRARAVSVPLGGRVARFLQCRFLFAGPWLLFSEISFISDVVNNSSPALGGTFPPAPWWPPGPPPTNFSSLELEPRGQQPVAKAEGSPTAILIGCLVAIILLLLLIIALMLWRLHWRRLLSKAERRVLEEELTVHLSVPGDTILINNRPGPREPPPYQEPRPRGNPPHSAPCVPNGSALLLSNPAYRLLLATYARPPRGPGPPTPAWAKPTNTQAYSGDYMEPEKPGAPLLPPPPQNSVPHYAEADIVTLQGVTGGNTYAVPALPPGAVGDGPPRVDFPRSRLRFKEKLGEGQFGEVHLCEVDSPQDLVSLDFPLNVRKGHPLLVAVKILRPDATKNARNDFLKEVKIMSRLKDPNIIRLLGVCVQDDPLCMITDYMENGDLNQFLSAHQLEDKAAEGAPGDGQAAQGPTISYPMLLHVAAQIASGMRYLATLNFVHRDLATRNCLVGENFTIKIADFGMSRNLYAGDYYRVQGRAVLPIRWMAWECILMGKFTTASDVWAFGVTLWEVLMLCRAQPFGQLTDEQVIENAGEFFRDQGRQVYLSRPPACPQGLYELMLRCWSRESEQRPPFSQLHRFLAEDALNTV
Sequence of D(2) dopamine receptor (Homo sapiens) (P14416 whole entry): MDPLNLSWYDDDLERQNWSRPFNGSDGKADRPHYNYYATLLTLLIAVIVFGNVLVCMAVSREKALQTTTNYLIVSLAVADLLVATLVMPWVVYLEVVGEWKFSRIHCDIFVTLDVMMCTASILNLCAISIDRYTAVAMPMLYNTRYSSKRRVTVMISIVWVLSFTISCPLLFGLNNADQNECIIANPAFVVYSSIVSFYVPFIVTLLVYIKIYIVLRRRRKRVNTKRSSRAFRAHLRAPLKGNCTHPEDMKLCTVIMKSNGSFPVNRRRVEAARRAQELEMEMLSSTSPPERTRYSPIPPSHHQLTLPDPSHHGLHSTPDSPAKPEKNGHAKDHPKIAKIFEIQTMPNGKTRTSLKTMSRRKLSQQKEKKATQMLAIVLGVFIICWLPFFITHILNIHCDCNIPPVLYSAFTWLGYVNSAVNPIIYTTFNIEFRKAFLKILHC
Sequence of Vascular endothelial growth factor receptor 3 (Homo sapiens) (P35916 whole entry): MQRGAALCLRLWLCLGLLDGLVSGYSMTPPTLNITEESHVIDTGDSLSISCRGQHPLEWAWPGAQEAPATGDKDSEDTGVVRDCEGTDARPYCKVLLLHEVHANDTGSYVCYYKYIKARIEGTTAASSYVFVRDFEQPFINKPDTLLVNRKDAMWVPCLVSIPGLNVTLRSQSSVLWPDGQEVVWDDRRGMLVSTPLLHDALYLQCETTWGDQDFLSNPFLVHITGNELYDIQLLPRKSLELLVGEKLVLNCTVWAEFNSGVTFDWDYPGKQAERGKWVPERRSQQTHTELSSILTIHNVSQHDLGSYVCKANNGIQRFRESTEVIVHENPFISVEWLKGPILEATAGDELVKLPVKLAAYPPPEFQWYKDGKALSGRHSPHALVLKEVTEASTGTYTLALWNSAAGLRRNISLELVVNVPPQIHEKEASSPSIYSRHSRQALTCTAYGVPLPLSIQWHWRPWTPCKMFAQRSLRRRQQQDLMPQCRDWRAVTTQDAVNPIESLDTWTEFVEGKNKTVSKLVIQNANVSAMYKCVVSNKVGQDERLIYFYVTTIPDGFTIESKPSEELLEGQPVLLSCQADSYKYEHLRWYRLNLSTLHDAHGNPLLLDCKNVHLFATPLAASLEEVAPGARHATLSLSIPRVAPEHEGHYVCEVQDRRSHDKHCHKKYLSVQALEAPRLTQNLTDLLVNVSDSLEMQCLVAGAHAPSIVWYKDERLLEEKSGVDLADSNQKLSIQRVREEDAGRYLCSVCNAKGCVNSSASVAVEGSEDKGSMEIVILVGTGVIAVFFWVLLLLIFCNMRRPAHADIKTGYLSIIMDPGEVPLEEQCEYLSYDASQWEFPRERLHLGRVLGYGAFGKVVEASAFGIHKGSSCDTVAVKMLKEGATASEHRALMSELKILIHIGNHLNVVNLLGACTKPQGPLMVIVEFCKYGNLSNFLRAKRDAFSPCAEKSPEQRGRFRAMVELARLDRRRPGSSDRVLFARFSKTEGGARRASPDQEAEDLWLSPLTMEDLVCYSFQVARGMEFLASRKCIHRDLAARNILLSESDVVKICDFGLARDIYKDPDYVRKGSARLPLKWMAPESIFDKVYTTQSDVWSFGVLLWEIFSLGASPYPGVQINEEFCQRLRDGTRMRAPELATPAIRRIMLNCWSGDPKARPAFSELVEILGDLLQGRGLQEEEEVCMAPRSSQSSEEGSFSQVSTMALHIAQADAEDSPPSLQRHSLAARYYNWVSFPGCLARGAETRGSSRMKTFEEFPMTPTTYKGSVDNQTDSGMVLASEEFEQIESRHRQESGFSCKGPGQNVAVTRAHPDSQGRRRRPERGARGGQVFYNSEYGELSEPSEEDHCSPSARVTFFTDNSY
Sequence of Dual specificity mitogen-activated protein kinase kinase 7 (Homo sapiens) (O14733 whole entry, canonical isoform): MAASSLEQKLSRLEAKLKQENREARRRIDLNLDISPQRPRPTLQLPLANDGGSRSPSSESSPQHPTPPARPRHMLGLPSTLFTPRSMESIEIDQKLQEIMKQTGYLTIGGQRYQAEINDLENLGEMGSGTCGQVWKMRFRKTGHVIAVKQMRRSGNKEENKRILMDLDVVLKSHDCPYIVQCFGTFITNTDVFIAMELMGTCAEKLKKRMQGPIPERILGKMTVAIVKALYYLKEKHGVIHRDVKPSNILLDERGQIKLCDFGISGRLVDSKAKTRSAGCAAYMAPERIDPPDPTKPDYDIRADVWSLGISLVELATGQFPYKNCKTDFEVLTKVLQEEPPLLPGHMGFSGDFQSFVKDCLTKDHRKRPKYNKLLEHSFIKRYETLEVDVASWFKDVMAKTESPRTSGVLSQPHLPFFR

## Nc1cnc(N2CCc3cc(S(=O)(=O)Nc4c(F)cc(Cl)cc4F)cc(N4CCCC4=O)c32)nc1
[1]
  residual activity: 84%
[2]
  residual activity: 100%
[3]
  residual activity: 100%
[4]
  residual activity: 100%
[5]
  inhibition: -1.31%
[6]
  residual activity: 100%
[7]
  residual activity: 88%
[8]
  residual activity: 93%
[9]
  residual activity: 89%
[10]
  residual activity: 100%
[11]
  residual activity: 100%
[12]
  residual activity: 100%
[13]
  residual activity: 100%
[14]
  residual activity: 60%
[15]
  residual activity: 85%
[16]
  residual activity: 100%
[17]
  residual activity: 69%
[18]
  residual activity: 100%
[19]
  residual activity: 100%
[20]
  inhibition: -0.42%
[21]
  residual activity: 86%
[22]
  residual activity: 97%
[23]
  residual activity: 95%
[24]
  residual activity: 95%
[25]
  residual activity: 78%
[26]
  inhibition: 9.99%
[27]
  residual activity: 100%
[28]
  residual activity: 74%
[29]
  residual activity: 100%
[30]
  residual activity: 100%
[31]
  residual activity: 100%
[32]
  residual activity: 99%
[33]
  residual activity: 100%
[34]
  inhibition: 9.24%
[35]
  residual activity: 100%
[36]
  residual activity: 100%
[37]
  residual activity: 93%
[38]
  residual activity: 100%
[39]
  residual activity: 86%
[40]
  residual activity: 100%
[41]
  residual activity: 84%
[42]
  inhibition: 0.99%
[43]
  residual activity: 100%
[44]
  residual activity: 98%
[45]
  residual activity: 94%

## Cn1nc(C(F)(F)F)cc1-c1cnc(N2CCc3cc(S(=O)(=O)Nc4c(F)cc(Cl)cc4F)cc(N4CCCC4=O)c32)nc1 [TP-020]
[1]
  residual activity: 90%
[2]
  residual activity: 12%
[3]
  residual activity: 72%
[4]
  residual activity: 100%
[5]
  inhibition: 9.44%
[6]
  residual activity: 98%
[7]
  residual activity: 84%
[8]
  residual activity: 96%
[9]
  residual activity: 87%
[10]
  residual activity: 88%
[11]
  residual activity: 94%
[12]
  residual activity: 100%
[13]
  residual activity: 99%
[14]
  residual activity: 94%
[15]
  residual activity: 93%
[16]
  residual activity: 100%
[17]
  residual activity: 93%
[18]
  residual activity: 94%
[19]
  residual activity: 74%
[20]
  inhibition: -0.24%
[21]
  residual activity: 82%
[22]
  residual activity: 79%
[23]
  residual activity: 98%
[24]
  residual activity: 94%
[25]
  residual activity: 99%
[26]
  inhibition: 41.2%
[27]
  residual activity: 78%
[28]
  residual activity: 100%
[29]
  residual activity: 77%
[30]
  residual activity: 100%
[31]
  residual activity: 100%
[32]
  residual activity: 68%
[33]
  residual activity: 99%
[34]
  inhibition: 55.3%
[35]
  residual activity: 82%
[36]
  residual activity: 75%
[37]
  residual activity: 79%
[38]
  residual activity: 100%
[39]
  residual activity: 96%
[40]
  residual activity: 100%
[41]
  residual activity: 78%
[42]
  inhibition: 18.5%
[43]
  residual activity: 79%
[44]
  residual activity: 84%
[45]
  residual activity: 84%
